Experimental data: patent publication EP4722201A1, “3-PHENYLISOXAZOLINE-5-CARBOXAMIDE COMPOUND, AND PREPARATION METHOD THEREFOR, HERBICIDAL COMPOSITION THEREOF AND USE THEREOF” (Jiangsu Flag Chemical Industry Co., Ltd, priority 2023, dated 2024)

Assays:
Assay in all cases: Indoor herbicide activity determination, Seed Treatment; pre-emergence (soil spray)
Type in all cases: in vivo
Aegilops tauschii = conditions: read-out: Herbicidal activities (inhibition rate) Aegilops tauschii; for inhibition at 60 g/ha: 60 g a.i./ha; for inhibition at 120 g/ha: 120 g a.i./ha
Excerpt: (§1) The testing method for herbicide activity of the compound of the present invention was as follows:
(§2) Seed Treatment; pre-emergence: quantitative seeds of gramineous weeds (Echinochloa crusgalli, Eleusine indica, Digitaria sanguinalis, Alopecurus japonicus, Beckmannia syzigachne, Leptochloa chinensis, Polypogon fugax, Alopecurus aequalis, Lolium multiflorum, Poa annua, Aegilops tauschii, Avena fatua, Alopecurus myosuroides, Alopecurus japonicus and Alopecurus aequalis), broad-leaved weeds (Eclipta prostrata, Amaranthus retroflexus, Rorippa indica, Malachium aquaticum, Veronica polita, Conyza canadensis, Sesbania cannabina, Sagittariatrifolia and Schoenoplectiella juncoides), and Cyperus iria were sown in plastic pots having a diameter of 7 cm and holes at the bottom and filled with nutrient soil (sandy soil, pH 6.1, organic matter 1%) respectively, the seeds were covered with an appropriate amount of soil after being sown, then the soil was wetted with water from the bottom, the seeds were cultured in a constant-temperature illuminated culture room for 24 h, and the soil was sprayed by using a 3WP-2000 traveling spray tower produced by the Nanjing Institute of Agricultural Mechanization of the Ministry of Agriculture, where a rotational speed of a main shaft was 96 mm/r, a spray height was 300 mm, an effective spraying range of a nozzle was 350 mm, a spray area was 0.35 m^2, and a flow rate at the nozzle was 390 mL/min.
(§3) Post-emergence: an appropriate quantity of seeds of gramineous weeds (Echinochloa crusgalli, Eleusine indica, Digitaria sanguinalis, Alopecurus japonicus, Beckmannia syzigachne, Leptochloa chinensis, Polypogon fugax, Alopecurus aequalis, Lolium multiflorum, Poa annua, Aegilops tauschii, Avena fatua, Alopecurus myosuroides, Alopecurus japonicus and Alopecurus aequalis), broad-leaved weeds (Eclipta prostrata, Amaranthus retroflexus, Rorippa indica, Malachium aquaticum, Veronica polita, Conyza canadensis, Sesbania cannabina, Sagittariatrifolia and Schoenoplectiella juncoides), and Cyperus iria were sown in plastic pots having a diameter of 7 cm and holes at the bottom and filled with nutrient soil (sandy soil, pH 6.1, organic matter 1%) respectively, the seeds were covered with an appropriate amount of soil after being sown, then the soil was wetted with water from the bottom, the seeds were cultured in a constant-temperature illuminated culture room until a 2-4 leaf stage, and stems and leaves underwent spray treatment. After the treatment, the test materials were placed in a laboratory and cultured in the constant-temperature illuminated culture room after the liquid was naturally dry in the shade, and results were determined 21 days later. Inhibition rate of fresh weight % = (1−(fresh weight of treated plants)/(fresh weight of control plants)) × 100% [formula]

Alopecurus japonicus = tested on: Alopecurus japonicus
Excerpt: as §1, §2, §3

Alopecurus myosuroides = tested on: Alopecurus myosuroides
Excerpt: as §1, §2, §3

Cyperus iria = conditions: read-out: Herbicidal activities (inhibition rate) Cyperus iria; for inhibition at 60 g/ha: 60 g a.i./ha; for inhibition at 120 g/ha: 120 g a.i./ha
Excerpt: as §1, §2, §3

Eclipta prostrata = conditions: read-out: Herbicidal activities (inhibition rate) Eclipta prostrata; for inhibition at 60 g/ha: 60 g a.i./ha; for inhibition at 120 g/ha: 120 g a.i./ha
Excerpt: as §1, §2, §3

Eleusine indica = tested on: Eleusine indica
Excerpt: as §1, §2, §3

Leptochloa chinensis = tested on: Leptochloa chinensis
Excerpt: as §1, §2, §3

Lolium multiflorum = tested on: Lolium multiflorum
Excerpt: as §1, §2, §3

Row | SMILES | inhibition at 60 g/ha (Aegilops tauschii) [%] | Herbicidal activities, Alopecurus japonicus (inhibition rate class) (Alopecurus japonicus; Dosage 120 g a.i./ha) | Herbicidal activities, Alopecurus myosuroides (inhibition rate class) (Alopecurus myosuroides; Dosage 120 g a.i./ha) | inhibition at 60 g/ha (Cyperus iria) [%] | inhibition at 60 g/ha (Eclipta prostrata) [%] | Herbicidal activities, Eleusine indica (inhibition rate class) (Eleusine indica; Dosage 120 g a.i./ha) | Herbicidal activities, Leptochloa chinensis (inhibition rate class) (Leptochloa chinensis; Dosage 120 g a.i./ha) | Herbicidal activities, Lolium multiflorum (inhibition rate class) (Lolium multiflorum; Dosage 120 g a.i./ha) | inhibition at 120 g/ha (Aegilops tauschii) [%] | Herbicidal activities, Alopecurus japonicus (inhibition rate class) (Alopecurus japonicus; Dosage 240 g a.i./ha) | Herbicidal activities, Alopecurus myosuroides (inhibition rate class) (Alopecurus myosuroides; Dosage 240 g a.i./ha) | inhibition at 120 g/ha (Cyperus iria) [%] | inhibition at 120 g/ha (Eclipta prostrata) [%] | Herbicidal activities, Eleusine indica (inhibition rate class) (Eleusine indica; Dosage 240 g a.i./ha) | Herbicidal activities, Leptochloa chinensis (inhibition rate class) (Leptochloa chinensis; Dosage 240 g a.i./ha) | Herbicidal activities, Lolium multiflorum (inhibition rate class) (Lolium multiflorum; Dosage 240 g a.i./ha)
1 | C=C[C@]1(C(=O)N[C@H]2C[C@@H](C(=O)O[C@H](C)COC)C2)CC(c2cc(F)cc(Cl)c2)=NO1 [I-33] | 60 to 80 | A (A indicates that the inhibition rate was greater than or equal to 80% to 100%) | A (A indicates that the inhibition rate was greater than or equal to 80% to 100%) | 60 to 80 | 80 to 100 | A (A indicates that the inhibition rate was greater than or equal to 80% to 100%) | A (A indicates that the inhibition rate was greater than or equal to 80% to 100%) | A (A indicates that the inhibition rate was greater than or equal to 80% to 100%) | – | – | – | – | – | – | – | –
2 | C=CC1(C(=O)N[C@H]2C[C@@H](C(=O)OCCS(C)(=O)=O)C2)CC(c2cc(F)cc(F)c2)=NO1 (stereo partly shown) [I-10] | – | – | – | – | – | – | – | – | 80 to 100 | A (A indicates that the inhibition rate was greater than or equal to 80% to 100%) | A (A indicates that the inhibition rate was greater than or equal to 80% to 100%) | 80 to 100 | 60 to 80 | A (A indicates that the inhibition rate was greater than or equal to 80% to 100%) | A (A indicates that the inhibition rate was greater than or equal to 80% to 100%) | A (A indicates that the inhibition rate was greater than or equal to 80% to 100%)
3 | C=C[C@]1(C(=O)N[C@H]2C[C@@H](C(=O)OCC=CC)C2)CC(c2cc(F)cc(Cl)c2)=NO1 [I-32] | 60 to 80 | B (B indicates that the inhibition rate was greater than or equal to 60% to less than 80%) | A (A indicates that the inhibition rate was greater than or equal to 80% to 100%) | 60 to 80 | 80 to 100 | A (A indicates that the inhibition rate was greater than or equal to 80% to 100%) | A (A indicates that the inhibition rate was greater than or equal to 80% to 100%) | B (B indicates that the inhibition rate was greater than or equal to 60% to less than 80%) | – | – | – | – | – | – | – | –
4 | C=C[C@]1(C(=O)N[C@H]2C[C@@H](C(=O)O[C@@H](C)COC)C2)CC(c2cc(F)cc(Cl)c2)=NO1 [I-34] | 60 to 80 | B (B indicates that the inhibition rate was greater than or equal to 60% to less than 80%) | A (A indicates that the inhibition rate was greater than or equal to 80% to 100%) | 60 to 80 | 80 to 100 | A (A indicates that the inhibition rate was greater than or equal to 80% to 100%) | A (A indicates that the inhibition rate was greater than or equal to 80% to 100%) | B (B indicates that the inhibition rate was greater than or equal to 60% to less than 80%) | – | – | – | – | – | – | – | –
5 | C=CC1(C(=O)N[C@H]2C[C@@H](C(=O)OCC[S+](C)[O-])C2)CC(c2cc(F)cc(F)c2)=NO1 (stereo partly shown) [I-9] | – | – | – | – | – | – | – | – | 80 to 100 | A (A indicates that the inhibition rate was greater than or equal to 80% to 100%) | A (A indicates that the inhibition rate was greater than or equal to 80% to 100%) | 80 to 100 | 60 to 80 | A (A indicates that the inhibition rate was greater than or equal to 80% to 100%) | A (A indicates that the inhibition rate was greater than or equal to 80% to 100%) | A (A indicates that the inhibition rate was greater than or equal to 80% to 100%)
6 | C=C[C@]1(C(=O)N[C@H]2C[C@@H](C(=O)OCCCCC)C2)CC(c2cc(F)cc(Cl)c2)=NO1 [I-31] | 60 to 80 | – | A (A indicates that the inhibition rate was greater than or equal to 80% to 100%) | 60 to 80 | 80 to 100 | A (A indicates that the inhibition rate was greater than or equal to 80% to 100%) | A (A indicates that the inhibition rate was greater than or equal to 80% to 100%) | – | – | – | – | – | – | – | – | –
7 | C=C[C@]1(C(=O)N[C@H]2C[C@@H](C(=O)OCC3CC3)C2)CC(c2cc(F)cc(Cl)c2)=NO1 [I-35] | 60 to 80 | A (A indicates that the inhibition rate was greater than or equal to 80% to 100%) | A (A indicates that the inhibition rate was greater than or equal to 80% to 100%) | 60 to 80 | 60 to 80 | A (A indicates that the inhibition rate was greater than or equal to 80% to 100%) | A (A indicates that the inhibition rate was greater than or equal to 80% to 100%) | A (A indicates that the inhibition rate was greater than or equal to 80% to 100%) | – | – | – | – | – | – | – | –
8 | C=C[C@]1(C(=O)N[C@H]2C[C@@H](C(=O)NOC)C2)CC(c2cc(F)cc(F)c2)=NO1 [I-23] | 80 to 100 | A (A indicates that the inhibition rate was greater than or equal to 80% to 100%) | A (A indicates that the inhibition rate was greater than or equal to 80% to 100%) | 80 to 100 | 60 to 80 | A (A indicates that the inhibition rate was greater than or equal to 80% to 100%) | A (A indicates that the inhibition rate was greater than or equal to 80% to 100%) | A (A indicates that the inhibition rate was greater than or equal to 80% to 100%) | – | – | – | – | – | – | – | –
9 | C=C[C@]1(C(=O)N[C@H]2C[C@@H](C(=O)NOC(C)C)C2)CC(c2cc(F)cc(Cl)c2)=NO1 [I-36] | 60 to 80 | A (A indicates that the inhibition rate was greater than or equal to 80% to 100%) | A (A indicates that the inhibition rate was greater than or equal to 80% to 100%) | 60 to 80 | 60 to 80 | A (A indicates that the inhibition rate was greater than or equal to 80% to 100%) | A (A indicates that the inhibition rate was greater than or equal to 80% to 100%) | B (B indicates that the inhibition rate was greater than or equal to 60% to less than 80%) | – | – | – | – | – | – | – | –
